This note sets out measurements from US7964735B2, “Insecticidal 3-acylaminobenzanilides” (Bayer Cropscience AG, priority 2005, dated 2011).

For orientation: melting point means the temperature, or range, at which the solid turns liquid.

Tested on in one data set: not given
Experiment: not given
Conditions: not given
For `Cc1cc(C(F)(C(F)(F)F)C(F)(F)F)cc(C)c1NC(=O)c1cccc(NC(=O)c2ccccc2Cl)c1` [Compound 75, 3-(2-chlorobenzoyl)amino-N-(2,6-dimethyl-4-heptafluoroisopropylphenyl)benzamide], the melting point was in the range of 141 to 145 °C.

The subject of a further data set is third stage larvae of Spodoptera litura. Briefly: Test to larvae of Spodoptera litura (leaf immersion). It is filed as in vivo. To be noted: efficacious component concentration 20 ppm; batata leaves immersed; 25° C.; after 7 days; average of two dishes. The method, then:
(§1) • Sample Solution Preparation • Solvent: dimethylformamide 3 part by weight • Emulsifier: polyoxyethylene alkyl phenyl ether 1 part by weight
(§2) To prepare a proper active compound, the active compound 1 part by weight was mixed with the above-mentioned solvent containing the above-mentioned emulsifier and the mixture was diluted with water to a prescribed concentration.
Leaves of batata were immersed in the sample solution diluted with water to a prescribed concentration and then the solution was dried out by air and the resulting leaves were put in a laboratory dish and 10 third stage larvae of Spodoptera litura were released and put in a greenhouse at a temperature 25° C. and the leaves of batata were added on second day and fourth day and the number of dead larvae was investigated after 7 days and the ratio of the dead larvae was calculated.
The results were the averages of two laboratory dishes for respective 1 group in this test.
`CCc1cc(C(F)(C(F)(F)F)C(F)(F)F)cc(C)c1NC(=O)c1cccc(NC(=O)c2cnccc2C(F)(F)F)c1` [Compound 1, 3-[4-(trifluoromethyl)nicotinyl]amino-N-(2-ethyl-6-methyl-4-heptafluoroisopropylphenyl)benzamide]: the “insecticidal ratio (ratio of the dead larvae)” value is recorded as 100%.
The same measure, in the same setting: next, `CCc1cc(C(F)(C(F)(F)F)C(F)(F)F)cc(C)c1NC(=O)c1cccc(NC(=O)c2ccc(Cl)nc2)c1` [Compound 3]: 100%; `CCc1cc(C(F)(C(F)(F)F)C(F)(F)F)cc(C)c1NC(=O)c1cccc(NC(=O)c2ncc(C(F)(F)F)cc2Cl)c1` [Compound 13]: 100%; `CCc1cc(C(F)(C(F)(F)F)C(F)(F)F)cc(C)c1NC(=O)c1cccc(NC(=O)c2cc(Cl)sc2Cl)c1` [Compound 24]: 100%.
Same read-out and setting: the result for `CCc1cc(C(F)(C(F)(F)F)C(F)(F)F)cc(C)c1NC(=O)c1cccc(NC(=O)c2cccs2)c1` [Compound 30] reads 100%; that for `CCc1cc(C(F)(C(F)(F)F)C(F)(F)F)cc(C)c1NC(=O)c1cccc(NC(=O)c2ccco2)c1` [Compound 32], 100%.
Still for that read-out and setting: the result for `CCc1cc(C(F)(C(F)(F)F)C(F)(F)F)cc(C)c1NC(=O)c1cccc(NC(=O)c2snnc2C)c1` [Compound 35] reads 100%.
`CCc1cc(C(F)(C(F)(F)F)C(F)(F)F)cc(C)c1NC(=O)c1cccc(NC(=O)c2ccccc2I)c1` [Compound 36]: the “insecticidal ratio (ratio of the dead larvae)” value is given as 100%.
Consider `Cc1cc(C(F)(C(F)(F)F)C(F)(F)F)cc(I)c1NC(=O)c1cccc(NC(=O)c2ccccc2Cl)c1` [Compound 37], for which the “insecticidal ratio (ratio of the dead larvae)” value was found to be 100%.
Still for that read-out and setting: the result for `CCc1cc(C(F)(C(F)(F)F)C(F)(F)F)cc(C)c1NC(=O)c1cccc(NC(=O)c2ccccc2Cl)c1` [Compound 38] reads 100%; that for `CCc1cc(C(F)(C(F)(F)F)C(F)(F)F)cc(C)c1NC(=O)c1cccc(NC(=O)c2ccc(OC(F)(F)F)cc2)c1` [Compound 39], 100%; that for `CCc1cc(C(F)(C(F)(F)F)C(F)(F)F)cc(C)c1NC(=O)c1cccc(NC(=O)c2ccccc2Br)c1` [Compound 40], 100%.
Still for that read-out and setting: the result for `CCc1cc(C(F)(C(F)(F)F)C(F)(F)F)cc(C)c1NC(=O)c1cccc(NC(=O)c2cccc(Br)c2)c1` [Compound 41] reads 100%; that for `CCc1cc(C(F)(C(F)(F)F)C(F)(F)F)cc(C)c1NC(=O)c1cccc(NC(=O)c2ccc(Br)cc2)c1` [Compound 42], 100%; that for `CCc1cc(C(F)(C(F)(F)F)C(F)(F)F)cc(C)c1NC(=O)c1cccc(NC(=O)c2ccc(Cl)c(Cl)c2)c1` [Compound 43], 100%.
Still for that read-out and setting: the result for `CCc1cc(C(F)(C(F)(F)F)C(F)(F)F)cc(C)c1NC(=O)c1cccc(NC(=O)c2ccc(Cl)cc2Cl)c1` [Compound 44] reads 100%; that for `CCc1cc(C(F)(C(F)(F)F)C(F)(F)F)cc(C)c1NC(=O)c1cccc(NC(=O)c2cc(Cl)cc(Cl)c2)c1` [Compound 45], 100%; that for `CCc1cc(C(F)(C(F)(F)F)C(F)(F)F)cc(C)c1NC(=O)c1cccc(NC(=O)c2c(Cl)cccc2Cl)c1` [Compound 46], 100%.
Turning to `CCc1cc(C(F)(C(F)(F)F)C(F)(F)F)cc(C)c1NC(=O)c1cccc(NC(=O)c2cccc(Cl)c2Cl)c1` [Compound 47], the “insecticidal ratio (ratio of the dead larvae)” value turned out to be 100%.
On the same count and under the same terms, the result for `CCc1cc(C(F)(C(F)(F)F)C(F)(F)F)cc(C)c1NC(=O)c1cccc(NC(=O)c2cc(Cl)ccc2Cl)c1` [Compound 48] reads 100%.
Turning to `CCc1cc(C(F)(C(F)(F)F)C(F)(F)F)cc(C)c1NC(=O)c1cccc(NC(=O)c2ccc(C(F)(F)F)cc2)c1` [Compound 49], the “insecticidal ratio (ratio of the dead larvae)” value was found to be 100%.
Same read-out and setting: next, `CCc1cc(C(F)(C(F)(F)F)C(F)(F)F)cc(C)c1NC(=O)c1cccc(NC(=O)c2ccccc2C(F)(F)F)c1` [Compound 51]: 100%; `CCc1cc(C(F)(C(F)(F)F)C(F)(F)F)cc(C)c1NC(=O)c1cccc(NC(=O)c2c(F)cc(F)cc2F)c1` [Compound 52]: 100%; `CCc1cc(C(F)(C(F)(F)F)C(F)(F)F)cc(C)c1NC(=O)c1cccc(NC(=O)c2ccccc2[N+](=O)[O-])c1` [Compound 53]: 100%.
Still for that read-out and setting: the result for `CCc1cc(C(F)(C(F)(F)F)C(F)(F)F)cc(C)c1NC(=O)c1cccc(NC(=O)c2c(F)cccc2F)c1` [Compound 54] reads 100%; that for `CCc1cc(C(F)(C(F)(F)F)C(F)(F)F)cc(C)c1NC(=O)c1cccc(NC(=O)c2cccc(F)c2F)c1` [Compound 55], 100%.
The same measure, in the same setting: the result for `CCc1cc(C(F)(C(F)(F)F)C(F)(F)F)cc(C)c1NC(=O)c1cccc(NC(=O)c2ccc(F)cc2F)c1` [Compound 56] reads 100%; that for `CCc1cc(C(F)(C(F)(F)F)C(F)(F)F)cc(C)c1NC(=O)c1cccc(NC(=O)c2cccc(Cl)c2)c1` [Compound 58], 100%.
As to `CCc1cc(C(F)(C(F)(F)F)C(F)(F)F)cc(C)c1NC(=O)c1cccc(NC(=O)c2ccc(Cl)cc2)c1` [Compound 59], the “insecticidal ratio (ratio of the dead larvae)” value was determined as 100%.
On the same count and under the same terms, next, `CCc1cc(C(F)(C(F)(F)F)C(F)(F)F)cc(C)c1NC(=O)c1cccc(NC(=O)c2ccc(OC)cc2)c1` [Compound 60]: 100%; `CCc1cc(C(F)(C(F)(F)F)C(F)(F)F)cc(C)c1NC(=O)c1cccc(NC(=O)c2ccc(F)cc2)c1` [Compound 61]: 100%; `CCc1cc(C(F)(C(F)(F)F)C(F)(F)F)cc(C)c1NC(=O)c1cccc(NC(=O)c2cccc(F)c2)c1` [Compound 62]: 100%.
Still for that read-out and setting: the result for `CCc1cc(C(F)(C(F)(F)F)C(F)(F)F)cc(C)c1NC(=O)c1cccc(NC(=O)c2ccccc2F)c1` [Compound 63] reads 100%; that for `CCc1cc(C(F)(C(F)(F)F)C(F)(F)F)cc(C)c1NC(=O)c1cccc(NC(=O)c2ccc(C)cc2)c1` [Compound 64], 100%; that for `CCc1cc(C(F)(C(F)(F)F)C(F)(F)F)cc(C)c1NC(=O)c1cccc(NC(=O)c2ccccc2C)c1` [Compound 66], 100%.
On the same count and under the same terms, the result for `Cc1cc(C(F)(C(F)(F)F)C(F)(F)F)cc(C)c1NC(=O)c1cccc(NC(=O)c2c(F)cccc2F)c1` [Compound 72] reads 100%; that for `Cc1cc(C(F)(C(F)(F)F)C(F)(F)F)cc(C)c1NC(=O)c1cccc(NC(=O)c2ccc(Cl)cc2)c1` [Compound 77], 100%.
Turning to `Cc1cc(C(F)(C(F)(F)F)C(F)(F)F)cc(C)c1NC(=O)c1cccc(NC(=O)c2ccccc2)c1` [Compound 88], the “insecticidal ratio (ratio of the dead larvae)” value worked out at 100%.
Still for that read-out and setting: the result for `Cc1cc(C(F)(C(F)(F)F)C(F)(F)F)cc(C)c1NC(=O)c1cccc(NC(=O)c2ccccc2Cl)c1F` [Compound 134] reads 100%; that for `Cc1cc(C(F)(C(F)(F)F)C(F)(F)F)cc(C)c1NC(=O)c1cccc(NC(=O)c2ccc(Cl)cc2)c1F` [Compound 139], 100%.

A further data set has as its system organic phosphorus agent- and carbamate agent-resistant Myzus persicasypii. As to the kind of experiment: Test to organic phosphorus agent- and carbamate agent-resistant Myzus persicasypii (spray on eggplant). The conditions noted are these: efficacious component concentration 500 ppm; sprayed on eggplant; 28° C.; after 7 days from spraying. Format: in vivo. The method, then:
as §1, §2
30 grown organic phosphorus agent- and carbamate agent-resistant Myzus persicasypii were inoculated in each vinyl pot with 6 cm diameter in which eggplant seeding was done and after 1 day from the inoculation, the above produced active compound diluted with water to have a prescribed concentration was sufficiently sprayed by a spray gun. After the spraying, the vinyl pots were left in a greenhouse at 28° C. and the insect extermination ratio was calculated after 7 days from spraying. The test was repeated two times.
Turning to `CCc1cc(C(F)(C(F)(F)F)C(F)(F)F)cc(C)c1NC(=O)c1cccc(NC(=O)c2cnccc2C(F)(F)F)c1` [Compound 1, 3-[4-(trifluoromethyl)nicotinyl]amino-N-(2-ethyl-6-methyl-4-heptafluoroisopropylphenyl)benzamide], the “insecticidal ratio (insect extermination ratio)” value is reported as 100%.
The same measure, in the same setting: next, `CCc1cc(C(F)(C(F)(F)F)C(F)(F)F)cc(C)c1NC(=O)c1cccc(NC(=O)c2ccccc2Cl)c1` [Compound 57]: 100%.
Turning to `CCc1cc(C(F)(C(F)(F)F)C(F)(F)F)cc(C)c1NC(=O)c1cccc(NC(=O)c2cccc(Cl)c2)c1` [Compound 58], the “insecticidal ratio (insect extermination ratio)” value was found to be 100%.
Still for that read-out and setting: the result for `CCc1cc(C(F)(C(F)(F)F)C(F)(F)F)cc(C)c1NC(=O)c1cccc(NC(=O)c2ccc(F)cc2)c1` [Compound 61] reads 100%; that for `CCc1cc(C(F)(C(F)(F)F)C(F)(F)F)cc(C)c1NC(=O)c1cccc(NC(=O)c2ccccc2F)c1` [Compound 63], 100%.
On the same count and under the same terms, the result for `Cc1cc(C(F)(C(F)(F)F)C(F)(F)F)cc(C)c1NC(=O)c1cccc(NC(=O)c2ccc(Cl)cc2)c1F` [Compound 139] reads 100%.
